This assay concerns the target T1, human CRHR2-alpha (Homo sapiens, UniProt Q13324).
T1 sequence (Q13324 1-411): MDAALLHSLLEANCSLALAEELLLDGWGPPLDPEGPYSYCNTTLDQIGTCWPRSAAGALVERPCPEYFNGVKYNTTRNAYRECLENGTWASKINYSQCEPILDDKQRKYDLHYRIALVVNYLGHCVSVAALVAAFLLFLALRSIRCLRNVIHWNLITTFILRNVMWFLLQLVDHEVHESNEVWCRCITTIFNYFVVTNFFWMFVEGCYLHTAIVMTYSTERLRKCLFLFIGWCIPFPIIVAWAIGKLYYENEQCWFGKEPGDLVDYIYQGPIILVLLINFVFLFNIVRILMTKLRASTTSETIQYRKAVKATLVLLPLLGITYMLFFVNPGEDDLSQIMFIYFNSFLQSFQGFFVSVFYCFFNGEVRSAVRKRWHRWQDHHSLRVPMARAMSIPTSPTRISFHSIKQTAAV
Kind of assay: cAMP functional assay for human CRHR2 (LANCE Ultra cAMP, TR-FRET). The format is cell-based. The settings on record: CHO-K1 cells expressing human CRHR2-alpha, agonist human urocortin2 at EC80, cAMP; read-out: IC50 against CRHR2. Put shortly:
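First, starved and frozen CHO-K1 cells expressing the receptor are thawed into IBMX-containing HBSS buffer (pH 7.4). Next, compounds are added for 30 min at 25° C. Then agonist at EC80 (urocortin2 or CRF, per receptor) is added for another 30 min, followed by cAMP detection reagents.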
(In general: TR-FRET usually uses a lanthanide donor and a delayed reading to cut background.)
As usually defined, the IC50 is the concentration that gives 50% inhibition. Regarding `Cc1ncc(Cl)cc1C(=O)N[C@H]1CC[C@H](Cn2c(=O)n(-c3ccc4c(c3)nnn4C3COC3)c3ccccc32)CC1` [Example 341, 5-chloro-2-methyl-N-((1r,4r)-4-((3-(1-(oxetan-3-yl)-1H-benzo[d][1,2,3]triazol-5-yl)-2-oxo-2,3-dihydro-1H-benzo[d]imidazol-1-yl)methyl)cyclohexyl)nicotinamide], the IC50 is less than 300 nM.

Turning to `O=C(N[C@H]1CC[C@H](Cn2c(=O)n(-c3ccn4cncc4c3)c3ccccc32)CC1)c1cc(Cl)cnc1C(F)(F)F` [Example 342, 5-chloro-N-((1r,4r)-4-((3-(imidazo[1,5-a]pyridin-7-yl)-2-oxo-2,3-dihydro-1H-benzo[d]imidazol-1-yl)methyl)cyclohexyl)-2-(tri-fluoromethyl)nicotinamide], the IC50 was less than 300 nM.

Take `Cc1ncc(Cl)cc1C(=O)N[C@H]1CC[C@H](Cn2c(=O)n(-c3cccc4cnccc34)c3ccccc32)CC1` [Example 343, 5-chloro-N-((1r,4r)-4-((3-(isoquinolin-5-yl)-2-oxo-2,3-dihydro-1H-benzo[d]imidazol-1-yl)methyl)cyclo-hexyl)-2-methylnicotinamide]: the IC50 was less than 300 nM.

In the case of `Cc1ncc(Cl)cc1C(=O)N[C@H]1CC[C@H](Cn2c(=O)n(-c3ccc4ncccc4c3)c3ccccc32)CC1` [Example 344, 5-chloro-2-methyl-N-((1r,4r)-4-((2-oxo-3-(quinolin-6-yl)-2,3-dihydro-1H-benzo[d]imidazol-1-yl)methyl)cyclo-hexyl)nicotinamide], the IC50 is less than 300 nM.

`Cc1ncc(Cl)cc1C(=O)N[C@H]1CC[C@H](Cn2c(=O)n(-c3cccc4ncccc34)c3ccccc32)CC1` [Example 345, 5-chloro-2-methyl-N-((1r,4r)-4-((2-oxo-3-(quinolin-5-yl)-2,3-dihydro-1H-benzo[d]imidazol-1-yl)methyl)cyclo-hexyl)nicotinamide]: the IC50 is less than 300 nM.

`Cc1ncc(Cl)cc1C(=O)N[C@H]1CC[C@H](Cn2c(=O)n(-c3cnc4ccccc4c3)c3ccccc32)CC1` [Example 346, 5-chloro-2-methyl-N-((1r,4r)-4-((2-oxo-3-(quinolin-3-yl)-2,3-dihydro-1H-benzo[d]imidazol-1-yl)methyl)cyclo-hexyl)nicotinamide]: the IC50 is less than 300 nM.

As to `Cc1ncc(Cl)cc1C(=O)N[C@H]1CC[C@H](Cn2c(=O)n(-c3cccc4c3cnn4C)c3ccccc32)CC1` [Example 347, 5-chloro-2-methyl-N-((1r,4r)-4-((3-(1-methyl-1H-indazol-4-yl)-2-oxo-2,3-dihydro-1H-benzo[d]imidazol-1-yl)methyl)cyclohexyl)nicotinamide], the IC50 was less than 300 nM.

In the case of `Cc1ncc(Cl)cc1C(=O)N[C@H]1CC[C@H](Cn2c(=O)n(-c3ccc4[nH]nc(-c5ccccc5)c4c3)c3ccccc32)CC1` [Example 348, 5-chloro-2-methyl-N-((1r,4r)-4-((2-oxo-3-(3-phenyl-1H-indazol-5-yl)-2,3-dihydro-1H-benzo[d]imidazol-1-yl)methyl)cyclohexyl)nicotinamide], the IC50 was less than 300 nM.

For `CNC(=O)c1ccc(-n2c(=O)n(C[C@H]3CC[C@H](NC(=O)c4cc(Cl)cnc4CC(F)F)CC3)c3ccccc32)cn1` [Example 349, 5-(3-(((1r,4r)-4-(5-chloro-2-(2,2-difluoroethyl)nicotina-mido)cyclohexyl)methyl)-2-oxo-2,3-dihydro-1H-benzo[d]imidazol-1-yl)-N-methyl-picolinamide], the IC50 is less than 300 nM.

`Cc1ncc(Cl)cc1C(=O)N[C@H]1CC[C@H](Cn2c(=O)n(-c3cccc4nccn34)c3ccccc32)CC1` [Example 350, 5-chloro-N-((1r,4r)-4-((3-(imidazo[1,2-a]pyridin-5-yl)-2-oxo-2,3-dihydro-1H-benzo [d]imidazol-1-yl)methyl)cyclohexyl)-2-methylnico-tinamide]: the IC50 was less than 300 nM.

The values above are taken from US11802120B2, “Fused cyclic urea derivatives as CRHR2 antagonist” (RaQualia Pharma Inc., priority 2018, dated 2023).
